Test results reported in US10941157B2, “Pesticidal compositions and uses thereof” (Gilead Apollo, LLC, priority 2015, dated 2021).
Converted amounts (≈) assume the structure as drawn. Where two headings read alike, the source gives them in different places.

Legend:
[1] = tested on: Saccharomyces cerevisiae (Sc); experiment: Yeast growth inhibition assay; assay type: cell-based; details: Saccharomyces cerevisiae, ≥75% inhibition, read-out: Compound Concentration (ppm) sufficient for ≥75% inhibition, Sc
Method: Both tables list the concentration of each compound that was sufficient to ≥90% inhibition of growth for each of the fungal pathogens listed above. In addition, some of compounds were tested in a yeast growth inhibition assay for Saccharomyces cerevisiae (Sc). Table 2 lists the concentration of the tested compound that was sufficient to ≥75% inhibition of Saccharomyces cerevisiae (Sc).

Botrtyis cinerea (Bc) = experiment: In vitro pathogen growth inhibition assay, Bc; assay type: cell-based; details: 48 h
Summary of the method: (§1)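 Spores in 17% V8 liquid medium, or 1.5 mm Rs mycelial plugs in ¼ PDB, incubated with compound; final concentration checked by OD600 for precipitation. OD readings at 24 and 48 h, blank-subtracted, plus visual ratings; value is concentration giving ≥90% growth inhibition.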

Diplodia maydis (Dm) = experiment: In vitro pathogen growth inhibition assay, Dm; assay type: cell-based; details: Stenocarpella maydis, 48 h
Summary of the method: (§2)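 Value reported is the compound concentration reaching ≥90% growth inhibition, from OD readings at 24 and 48 h after blank subtraction, confirmed visually. Inoculum was spores diluted in 17% V8 medium, except Rs, using 1.5 mm mycelial plugs in ¼ PDB; actual compound concentration corrected via OD600.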

[2] = tested on: Fusarium virguliforme (Fv); experiment: In vitro pathogen growth inhibition assay, Fv; assay type: cell-based
Summary of the method: as §2

Rhizoctonia solani (Rs) = experiment: In vitro pathogen growth inhibition assay, Rs (mycelial plugs); assay type: cell-based; details: Rhizoctonia solani, 48 h, mycelial plugs
Summary of the method: as §2

[3] = tested on: Collectotrichum graminicola (Cg); experiment: In vitro pathogen growth inhibition assay, Cg; assay type: cell-based; details: 48 h
Summary of the method: as §1

Septoria tritici (St) = experiment: In vitro pathogen growth inhibition assay, St; assay type: cell-based; details: Zymoseptoria tritici, 48 h
Summary of the method: as §1

[4] = tested on: Fusarium moniliforme (Fm); experiment: In vitro pathogen growth inhibition assay, Fm; assay type: cell-based; details: Fusarium verticillioides
Summary of the method: as §1

[5] = tested on: Phytophthora capsici (Pc); experiment: In vitro pathogen growth inhibition assay, Pc; assay type: cell-based; details: 48 h
Summary of the method: as §2

Phakopsora pachyrhizi = experiment: Foliar protection test for Asian soybean rust control; assay type: in vivo; details: foliar application to soybean (Glycine max AG4832), percent disease area evaluated 14 days later
Puccinia triticina = experiment: Foliar protection test for wheat leaf rust control; assay type: in vivo; details: foliar application to wheat (Triticum aestivum cv. Winterhawk), evaluated 10 days later
[6] = tested on: Blumeria graminis f. sp. hordei; experiment: Foliar protection test for barley powdery mildew control; assay type: in vivo; details: foliar spray on Hordeum vulgare cv. Perry, inoculated 24 hours after treatment, evaluated 7 days later
Summary of the method: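 Six-day-old barley (cv. Perry) sprayed to wetness on both leaf sides; 24 h later inoculated by shaking spores from infected stock plants. Kept at 20 to 22° C, 70% relative humidity; mildew colonization assessed 7 days later.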

Fusarium graminearum = assay type: in vivo; details: spray on flowering Triticum aestivum cv. Samson, inoculated 24 hours after treatment, evaluated 14 days later
[7] = tested on: Mycosphaerella graminicola (synthetic Septoria tritici); experiment: Foliar protection test for wheat septoria leaf blotch control; assay type: in vivo; details: foliar spray on Triticum aestivum cv. WinterHawk, inoculated 1 hour after treatment, evaluated 16 days later
Sphaerotheca fuliginea = experiment: Foliar protection for cucumber powdery mildew control; assay type: in vivo; details: foliar spray on Cucumis sativus cv. Straight Eight, inoculated 24 hours after treatment, evaluated 7 days later
Summary of the method: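 Cucumber plants (cv. Straight Eight, 10 days old) sprayed to wetness on both leaf surfaces, then inoculated 24 h later by shaking sporulating stock plants over them. Held at 23–27 °C, 16 h light, 60% RH. Mildew colonization scored 7 days after inoculation, at compound concentrations of 10 ppm or lower.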

[8] = ≥90% inhibition, 48 hours vs 2% DMSO control, read-out: Compound Concentration (ppm) sufficient for ≥90% inhibition of growth, Bc
[9] = ≥90% inhibition, 48 hours vs 2% DMSO control, read-out: Compound Concentration (ppm) sufficient for ≥90% inhibition of growth, Dm
[10] = ≥90% inhibition, 48 hours vs 2% DMSO control, read-out: Compound Concentration (ppm) sufficient for ≥90% inhibition of growth, Fv
[11] = ≥90% inhibition, 48 hours vs 2% DMSO control, read-out: Compound Concentration (ppm) sufficient for ≥90% inhibition of growth, Rs
[12] = ≥90% inhibition, 48 hours vs 2% DMSO control, read-out: Compound Concentration (ppm) sufficient for ≥90% inhibition of growth, Cg
[13] = ≥90% inhibition, 48 hours vs 2% DMSO control, read-out: Compound Concentration (ppm) sufficient for ≥90% inhibition of growth, St
[14] = ≥90% inhibition, 48 hours vs 2% DMSO control, read-out: Compound Concentration (ppm) sufficient for ≥90% inhibition of growth, Fm
[15] = ≥90% inhibition, 48 hours vs 2% DMSO control, read-out: Compound Concentration (ppm) sufficient for ≥90% inhibition of growth, Pc

## CCNC(=O)C(C)(C)n1c(=O)c2c(C)c(-c3ncco3)sc2n(C[C@H](O[C@H]2CC[C@@H](O)CC2)c2ccccc2OC)c1=O [Compound I-010]
[1]
  IC75: 0.4 µg/mL (≈ 0.655 µM)
Botrtyis cinerea (Bc); [8]
  IC90: 0.4 µg/mL (≈ 0.655 µM)
Diplodia maydis (Dm); [9]
  IC90: ≥ 2 µg/mL
[2]; [10]
  IC90: 2 µg/mL (≈ 3.27 µM)
Rhizoctonia solani (Rs); [11]
  IC90: 50 µg/mL (≈ 81.9 µM)
[3]; [12]
  IC90: 50 µg/mL (≈ 81.9 µM)
Septoria tritici (St); [13]
  IC90: > 50 µg/mL
[4]; [14]
  IC90: 0.08 µg/mL (≈ 0.131 µM)
[5]; [15]
  IC90: > 50 µg/mL

## COc1ccccc1[C@H](Cn1c(=O)n(C(C)(C)C(=O)NC(C)C)c(=O)c2c(C)c(-c3ncco3)sc21)OC1CCOCC1 [Compound I-011]
[1]
  IC75: 1.2 µg/mL (≈ 1.96 µM)
Botrtyis cinerea (Bc); [8]
  IC90: 0.4 µg/mL (≈ 0.655 µM)
Diplodia maydis (Dm); [9]
  IC90: 2 µg/mL (≈ 3.27 µM)
[2]; [10]
  IC90: 2 µg/mL (≈ 3.27 µM)
Rhizoctonia solani (Rs); [11]
  IC90: 10 µg/mL (≈ 16.4 µM)
[3]; [12]
  IC90: 2 µg/mL (≈ 3.27 µM)
Septoria tritici (St); [13]
  IC90: 50 µg/mL (≈ 81.9 µM)
[4]; [14]
  IC90: 0.08 µg/mL (≈ 0.131 µM)
[5]; [15]
  IC90: > 50 µg/mL

## COc1ccccc1[C@H](Cn1c(=O)n(C(C)(C)C(=O)NC(C)C)c(=O)c2c(C)c(-c3ncco3)sc21)O[C@H]1CC[C@@H](O)CC1 [Compound I-012]
[1]
  IC75: 0.14 µg/mL (≈ 0.224 µM)
Botrtyis cinerea (Bc); [8]
  IC90: 0.4 µg/mL (≈ 0.64 µM)
Diplodia maydis (Dm); [9]
  IC90: 2 µg/mL (≈ 3.2 µM)
[2]; [10]
  IC90: 2 µg/mL (≈ 3.2 µM)
Rhizoctonia solani (Rs); [11]
  IC90: 50 µg/mL (≈ 80 µM)
[3]; [12]
  IC90: 10 µg/mL (≈ 16 µM)
Septoria tritici (St); [13]
  IC90: ≥ 10 µg/mL
[4]; [14]
  IC90: 0.08 µg/mL (≈ 0.128 µM)
[5]; [15]
  IC90: > 50 µg/mL

## COc1ccccc1[C@H](Cn1c(=O)n(C(C)(C)C(=O)NC(C)C)c(=O)c2c(C)c(-c3ncco3)sc21)OC1CCC(=O)CC1 [Compound I-013]
[1]
  IC75: 0.14 µg/mL (≈ 0.225 µM)
Botrtyis cinerea (Bc); [8]
  IC90: 0.4 µg/mL (≈ 0.642 µM)
Diplodia maydis (Dm); [9]
  IC90: 0.4 µg/mL (≈ 0.642 µM)
[2]; [10]
  IC90: 2 µg/mL (≈ 3.21 µM)
Rhizoctonia solani (Rs); [11]
  IC90: 10 µg/mL (≈ 16.1 µM)
[3]; [12]
  IC90: 10 µg/mL (≈ 16.1 µM)
Septoria tritici (St); [13]
  IC90: ≥ 10 µg/mL
[4]; [14]
  IC90: 0.08 µg/mL (≈ 0.128 µM)
[5]; [15]
  IC90: > 50 µg/mL

## COc1ccccc1[C@H](Cn1c(=O)n(C(C)(C)C(=O)NC2CCC2)c(=O)c2c(C)c(-c3ncco3)sc21)OC(C)C [Compound I-098]
[1]
  IC75: 11 µg/mL (≈ 18.9 µM)
Botrtyis cinerea (Bc); [8]
  IC90: 2 µg/mL (≈ 3.44 µM)
Diplodia maydis (Dm); [9]
  IC90: 2 µg/mL (≈ 3.44 µM)
[2]; [10]
  IC90: 10 µg/mL (≈ 17.2 µM)
Rhizoctonia solani (Rs); [11]
  IC90: 10 µg/mL (≈ 17.2 µM)
[3]; [12]
  IC90: 10 µg/mL (≈ 17.2 µM)
Septoria tritici (St); [13]
  IC90: > 50 µg/mL
[4]; [14]
  IC90: 0.4 µg/mL (≈ 0.689 µM)
[5]; [15]
  IC90: > 50 µg/mL

## COc1ccccc1[C@H](Cn1c(=O)n(C(C)(C)C(=O)NC2CCC2)c(=O)c2c(C)c(-c3ncco3)sc21)OC1CCOCC1 [Compound I-099]
[1]
  IC75: 33 µg/mL (≈ 53 µM)
Botrtyis cinerea (Bc); [8]
  IC90: 10 µg/mL (≈ 16.1 µM)
Diplodia maydis (Dm); [9]
  IC90: 10 µg/mL (≈ 16.1 µM)
[2]; [10]
  IC90: 50 µg/mL (≈ 80.3 µM)
Rhizoctonia solani (Rs); [11]
  IC90: 50 µg/mL (≈ 80.3 µM)
[3]; [12]
  IC90: 50 µg/mL (≈ 80.3 µM)
Septoria tritici (St); [13]
  IC90: > 50 µg/mL
[4]; [14]
  IC90: 0.4 µg/mL (≈ 0.642 µM)
[5]; [15]
  IC90: > 50 µg/mL

## COc1ccccc1[C@H](Cn1c(=O)n(C(C)(C)C(N)=O)c(=O)c2c(C)c(-c3ncco3)sc21)O[C@H]1CC[C@@H](O)CC1 [Compound I-100]
[1]
  IC75: 1.2 µg/mL (≈ 2.06 µM)
Botrtyis cinerea (Bc); [8]
  IC90: 2 µg/mL (≈ 3.43 µM)
Diplodia maydis (Dm); [9]
  IC90: 2 µg/mL (≈ 3.43 µM)
[2]; [10]
  IC90: 10 µg/mL (≈ 17.2 µM)
Rhizoctonia solani (Rs); [11]
  IC90: 50 µg/mL (≈ 85.8 µM)
[3]; [12]
  IC90: 50 µg/mL (≈ 85.8 µM)
Septoria tritici (St); [13]
  IC90: ≥ 50 µg/mL
[4]; [14]
  IC90: 0.4 µg/mL (≈ 0.686 µM)
[5]; [15]
  IC90: > 50 µg/mL

## COc1ccc(F)cc1[C@H](Cn1c(=O)n(C(C)(C)C(=O)NC(C)C)c(=O)c2c(C)c(-n3nccn3)sc21)OC(C)=O [Compound I-323, (R)-1-(5-fluoro-2-methoxyphenyl)-2-(3-(1-(isopropylamino)-2-methyl-1-oxopropan-2-yl)-5-methyl-2,4-dioxo-6-(2H-1,2,3-triazol-2-yl)-3,4-dihydrothieno[2,3-d]pyrimidin-1(2H)-yl)ethyl acetate]
Phakopsora pachyrhizi
  Asian Soybean Rust Control at a compound concentration of 25 ppm or lower: AA (≥85% control of Asian soybean rust)
Botrtyis cinerea (Bc); ≥90% growth inhibition, 48 hours, vs 2% DMSO control, read-out: Compound Concentration (ppm) sufficient for ≥90% inhibition of Bc
  IC90: 0.4 µg/mL
Diplodia maydis (Dm); ≥90% growth inhibition, 48 hours, vs 2% DMSO control, read-out: Compound Concentration (ppm) sufficient for ≥90% inhibition of Dm
  IC90: ≥ 0.4 µg/mL
[2]; ≥90% growth inhibition, 48 hours, vs 2% DMSO control, read-out: Compound Concentration (ppm) sufficient for ≥90% inhibition of Fv
  IC90: 0.08 µg/mL
Puccinia triticina
  Wheat Leaf Rust Control at a compound concentration of 10 ppm or lower: AA (≥85% control of wheat leaf rust)
[6]
  Barley Powdery Mildew Control at a compound concentration of 10 ppm or lower: AA (≥85% control of barley powdery mildew)
Rhizoctonia solani (Rs); ≥90% growth inhibition, 48 hours, vs 2% DMSO control, read-out: Compound Concentration (ppm) sufficient for ≥90% inhibition of Rs
  IC90: 0.08 µg/mL
Fusarium graminearum
  Wheat Fusarium Head Blight Control at a compound concentration of 25 ppm or lower: C (from 25 to 49% control of wheat fusarium head blight)
[3]; ≥90% growth inhibition, 48 hours, vs 2% DMSO control, read-out: Compound Concentration (ppm) sufficient for ≥90% inhibition of Cg
  IC90: 0.4 µg/mL
[7]
  Septoria Leaf Blotch Control at a compound concentration of 25 ppm or lower: AA (≥85% control of wheat septoria leaf blotch)
Septoria tritici (St); ≥90% growth inhibition, 48 hours, vs 2% DMSO control, read-out: Compound Concentration (ppm) sufficient for ≥90% inhibition of St
  IC90: > 50 µg/mL
Sphaerotheca fuliginea
  Cucumber Powdery Mildew Control at a compound concentration of 10 ppm or lower: AA (≥85% control of cucumber powdery mildew)
[4]; ≥90% growth inhibition, 48 hours, vs 2% DMSO control, read-out: Compound Concentration (ppm) sufficient for ≥90% inhibition of Fm
  IC90: 0.08 µg/mL
[5]; ≥90% growth inhibition, 48 hours, vs 2% DMSO control, read-out: Compound Concentration (ppm) sufficient for ≥90% inhibition of Pc
  IC90: > 50 µg/mL
